Data published in patent US20090209536A1, “AMINOQUINAZOLINE CANNABINOID RECEPTOR MODULATORS FOR TREATMENT OF DISEASE” (KALYPSYS, INC., priority 2007, published 2009).

Columns and labels:
[1] = biological target: T1, human cannabinoid receptor type 2 (Homo sapiens, UniProt P34972); experiment: Human CB2 Radioligand Binding Assay; conditions: competition with [3H] CP-55,940; membranes from stably transfected CHO CB2 cells; read-out: CB2 Ligand Binding Asssay EC50
T1 construct: expressed in transfected cells; membrane preparation
T1 sequence (P34972 whole entry): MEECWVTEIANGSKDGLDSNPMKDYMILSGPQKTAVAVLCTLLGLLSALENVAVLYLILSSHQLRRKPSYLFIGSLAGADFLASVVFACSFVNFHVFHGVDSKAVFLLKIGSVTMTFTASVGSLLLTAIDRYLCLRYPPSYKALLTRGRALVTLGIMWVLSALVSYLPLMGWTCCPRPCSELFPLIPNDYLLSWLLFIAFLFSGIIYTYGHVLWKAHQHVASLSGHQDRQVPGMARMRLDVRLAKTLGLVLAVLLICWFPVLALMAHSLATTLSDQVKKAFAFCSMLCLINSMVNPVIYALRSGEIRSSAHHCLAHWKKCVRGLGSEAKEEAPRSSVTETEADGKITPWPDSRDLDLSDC
Procedure, shortened: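 Filtration competition binding on membranes from CHO cells stably expressing human CB2, with [3H]CP-55,940 at its lot-specific Kd, in 50 mM Tris-HCl pH 7.4, EGTA, MgCl2, 5 mg/ml BSA, 1% DMSO; 90 min at 30° C. Compounds at 10 uM single point or dose-response; bound radioactivity by scintillation, 100 nM CP-55,940 as 100% efficacy.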

[2] = biological target: T2, human cannabinoid receptor type 1 (Homo sapiens, UniProt P21554); experiment: Human CB1 Radioligand Binding Assay (basis of selectivity, CB2 vs. CB1); conditions: CB1: HEK 293 EBNA cells expressing human CB1; CB2: CHO CB2 membranes
T2 construct: purchased Perkin Elmer RBHCB1M; host or cells: HEK 293 EBNA cells
T2 sequence (P21554 whole entry): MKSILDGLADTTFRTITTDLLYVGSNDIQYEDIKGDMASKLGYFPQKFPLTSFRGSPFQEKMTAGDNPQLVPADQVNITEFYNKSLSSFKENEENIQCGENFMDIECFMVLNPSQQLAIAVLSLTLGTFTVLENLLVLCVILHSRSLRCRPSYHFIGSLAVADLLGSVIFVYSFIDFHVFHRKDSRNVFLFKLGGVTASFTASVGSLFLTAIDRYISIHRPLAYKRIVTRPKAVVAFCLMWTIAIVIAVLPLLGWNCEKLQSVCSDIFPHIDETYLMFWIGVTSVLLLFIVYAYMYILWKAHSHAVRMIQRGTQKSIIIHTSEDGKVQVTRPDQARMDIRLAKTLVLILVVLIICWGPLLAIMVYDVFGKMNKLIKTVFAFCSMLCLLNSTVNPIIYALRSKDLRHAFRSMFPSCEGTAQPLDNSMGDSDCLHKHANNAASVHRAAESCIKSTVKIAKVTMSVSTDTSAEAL
Description: 2. Human CB1 Radioligand Binding Assay
The incubation buffer was composed of 50 mM Tris-HCl pH 7.4, 2.5 mM EDTA, 5 mM MgCl2, 5.0 mg/ml fatty acid free BSA and the wash buffer was composed of 50 mM Tris-HCl pH 7.4, 2.5 mM EDTA, 5 mM MgCl2, 0.5 mg/ml fatty acid free BSA.

Row | Compound | EC50 [1] [nM] | Selectivity, CB2 vs. CB1 [2]
1 | Cc1cccc2nc(-c3ccccc3Cl)nc(N3CCCC3)c12 [Example 256, 2-(2-Chlorophenyl)-5-methyl-4-(pyrrolidin-1-yl)quinazoline] | < 1000 | + (+ indicates > 10−fold)
2 | Cn1ccnc1N1CCN(c2nc(-c3ccccc3Cl)nc3ccccc23)CC1 [Example 257, 2-(2-Chlorophenyl)-4-(4-(1-methyl-1H-imidazol-2-yl)piperazin-1-yl)quinazoline] | > 1000 | − (− indicates ≦ 10−fold)
3 | Clc1ccccc1-c1nc(NCCCn2ccnc2)c2ccccc2n1 [Example 258, N-(3-(1H-Imidazol-1-yl)propyl)-2-(2-chlorophenyl)quinazolin-4-amine] | > 1000 | − (− indicates ≦ 10−fold)
4 | CN(CCCn1ccnc1)c1nc(-c2ccccc2Cl)nc2ccccc12 [Example 259, N-(3-(1H-Imidazol-1-yl)propyl)-2-(2-chlorophenyl)-N-methylquinazolin-4-amine] | > 1000 | − (− indicates ≦ 10−fold)
5 | CCC(=O)N1CCN(c2nc(-c3ccccc3Cl)nc3cccc(Cl)c23)CC1 [Example 260, 1-(4-(5-Chloro-2-(2-chlorophenyl)quinazolin-4-yl)piperazin-1-yl)propan-1-one] | < 1000 | + (+ indicates > 10−fold)
6 | COC(=O)N1CCN(c2nc(-c3ccccc3Cl)nc3cccc(Cl)c23)CC1 [Example 261, Methyl 4-(5-chloro-2-(2-chlorophenyl)quinazolin-4-yl)piperazine-1-carboxylate] | < 1000 | + (+ indicates > 10−fold)
7 | O=C(c1ncc[nH]1)N1CCN(c2nc(-c3ccccc3Cl)nc3ccccc23)CC1 [Example 262, (4-(2-(2-Chlorophenyl)quinazolin-4-yl)piperazin-1-yl)(1H-imidazol-2-yl)methanone] | > 1000 | − (− indicates ≦ 10−fold)
8 | Cn1ccnc1C(=O)N1CCN(c2nc(-c3ccccc3Cl)nc3ccccc23)CC1 [Example 263, (4-(2-(2-chlorophenyl)quinazolin-4-yl)piperazin-1-yl)(1-methyl-1H-imidazol-2-yl)methanone] | > 1000 | − (− indicates ≦ 10−fold)
9 | Clc1ccccc1-c1nc(N2CCN(c3nccs3)CC2)c2ccccc2n1 [Example 264, 2-(4-(2-(2-Chlorophenyl)quinazolin-4-yl)piperazin-1-yl)thiazole] | > 1000 | − (− indicates ≦ 10−fold)
10 | CC(=O)N1CCN(c2nc(-c3ccccc3Cl)nc3cccc(Cl)c23)CC1 [Example 265, 1-(4-(5-Chloro-2-(2-chlorophenyl)quinazolin-4-yl)piperazin-1-yl)ethanone] | < 1000 | + (+ indicates > 10−fold)
11 | CCOC(=O)N1CCN(c2nc(-c3ccccc3Cl)nc3cccc(Cl)c23)CC1 [Example 266, Ethyl 4-(5-chloro-2-(2-chlorophenyl)quinazolin-4-yl)piperazine-1-carboxylate] | < 1000 | + (+ indicates > 10−fold)
12 | Clc1ccccc1-c1nc(N2CCCC2)c2c(Cl)cccc2n1 [Example 267, 5-Chloro-2-(2-chlorophenyl)-4-(pyrrolidin-1-yl)quinazoline] | < 1000 | + (+ indicates > 10−fold)
13 | CC(=O)N1CCN(c2nc(-c3ccccc3Cl)nc3ccc(F)cc23)CC1 [Example 268, 1-(4-(2-(2-Chlorophenyl)-6-fluoroquinazolin-4-yl)piperazin-1-yl)ethanone] | < 1000 | − (− indicates ≦ 10−fold)
14 | CCOC(=O)N1CCN(c2nc(-c3ccccc3Cl)nc3ccc(F)cc23)CC1 [Example 269, Ethyl 4-(2-(2-chlorophenyl)-6-fluoroquinazolin-4-yl)piperazine-1-carboxylate] | < 1000 | + (+ indicates > 10−fold)
15 | Fc1ccc2nc(-c3ccccc3Cl)nc(N3CCCC3)c2c1 [Example 270, 2-(2-Chlorophenyl)-6-fluoro-4-(pyrrolidin-1-yl)quinazoline] | > 1000 | − (− indicates ≦ 10−fold)
16 | CC(=O)N1CCN(c2nc(-c3ccccc3F)nc3ccc(Cl)cc23)CC1 [Example 271, 1-(4-(6-Chloro-2-(2-fluorophenyl)quinazolin-4-yl)piperazin-1-yl)ethanone] | < 1000 | − (− indicates ≦ 10−fold)
17 | CCOC(=O)N1CCN(c2nc(-c3ccccc3F)nc3ccc(Cl)cc23)CC1 [Example 272, Ethyl 4-(6-chloro-2-(2-fluorophenyl)quinazolin-4-yl)piperazine-1-carboxylate] | > 1000 | − (− indicates ≦ 10−fold)
18 | Fc1ccccc1-c1nc(N2CCCC2)c2cc(Cl)ccc2n1 [Example 273, 6-Chloro-2-(2-fluorophenyl)-4-(pyrrolidin-1-yl)quinazoline] | < 1000 | − (− indicates ≦ 10−fold)
19 | COc1ccc2nc(-c3ccccc3F)nc(N3CCN(C(C)=O)CC3)c2c1 [Example 274, 1-(4-(2-(2-Fluorophenyl)-6-methoxyquinazolin-4-yl)piperazin-1-yl)ethanone] | < 1000 | − (− indicates ≦ 10−fold)
20 | CCOC(=O)N1CCN(c2nc(-c3ccccc3F)nc3ccc(OC)cc23)CC1 [Example 275, Ethyl 4-(2-(2-fluorophenyl)-6-methoxyquinazolin-4-yl)piperazine-1-carboxylate] | > 1000 | + (+ indicates > 10−fold)
21 | COc1ccc2nc(-c3ccccc3F)nc(N3CCCC3)c2c1 [Example 276, 2-(2-Fluorophenyl)-6-methoxy-4-(pyrrolidin-1-yl)quinazoline] | > 1000 | − (− indicates ≦ 10−fold)
22 | CC(=O)N1CCN(c2nc(-c3ccc(C(C)(C)C)cc3)nc3ccc(Cl)cc23)CC1 [Example 277, 1-(4-(2-(4-tert-Butylphenyl)-6-chloroquinazolin-4-yl)piperazin-1-yl)ethanone] | > 1000 | − (− indicates ≦ 10−fold)
23 | CC(C)(C)c1ccc(-c2nc(N3CCCC3)c3cc(Cl)ccc3n2)cc1 [Example 278, 2-(4-tert-Butylphenyl)-6-chloro-4-(pyrrolidin-1-yl)quinazoline] | < 1000 | − (− indicates ≦ 10−fold)
24 | CCOC(=O)N1CCN(c2nc(-c3ccccc3F)nc3ccccc23)CC1 [Example 279, Ethyl 4-(2-(2-fluorophenyl)quinazolin-4-yl)piperazine-1-carboxylate] | < 1000 | + (+ indicates > 10−fold)
25 | CC(=O)N1CCN(c2nc(-c3ccccc3F)nc3cccc(F)c23)CC1 [Example 280, 1-(4-(5-Fluoro-2-(2-fluorophenyl)quinazolin-4-yl)piperazin-1-yl)ethanone] | < 1000 | + (+ indicates > 10−fold)
26 | CCOC(=O)N1CCN(c2nc(-c3ccccc3F)nc3cccc(F)c23)CC1 [Example 281, Ethyl 4-(5-fluoro-2-(2-fluorophenyl)quinazolin-4-yl)piperazine-1-carboxylate] | < 1000 | + (+ indicates > 10−fold)
27 | Fc1ccccc1-c1nc(N2CCCC2)c2c(F)cccc2n1 [Example 282, 5-Fluoro-2-(2-fluorophenyl)-4-(pyrrolidin-1-yl)quinazoline] | < 1000 | + (+ indicates > 10−fold)
